The source of these data is patent US9451768B2, “Biocidal compositions and methods of use” (priority 2009, dated 2016).

Experiment [1] concerns mixed bacteria consortium (Pseudomonas aeruginosa ATCC 10145, Pseudomonas aeruginosa ATCC 15422, Enterobacter aerogenes ATCC 13048, Escherichia coli ATCC …). The experiment can be described thus: Re-challenge test against aerobic mixed bacteria consortium (Example 3). The settings on record: ambient temperature; for Dose required for ≧4 log10 bacteria reduction (ppm), CTAC: CTAC alone or CTAC part of DBNPA/CTAC combination; for Dose required for ≧4 log10 bacteria reduction (ppm), DBNPA: DBNPA alone or DBNPA part of DBNPA/CTAC combination. It counts as cell-based. Here is the method: (§1) The synergy indexes reported in the following examples are calculated using the following equation: Synergy Index=Ca/CA+Cb/CB
(§2) Various methods known to those skilled in the art can be used for evaluating biocidal efficacy. In the examples below, aliquots of the treated samples are removed at predetermined time points and the concentration required to achieve a certain level or complete bacterial kill is determined by culture-based methods including serial dilution. In some examples, the method is based or adapted (e.g., for high temperature testing or for the presence of sulfide) from the methodology described in international application PCT/US08/075,755, filed Sep. 10, 2008, which is incorporated herein by reference.
(§3) DBNPA and CTAC is added to a sterile solution of synthetic surface water (CaCl2 0.2203 g, MgSO4 0.1847 g, NaHCO3 0.1848 g, DI water 1 L) both alone and in various combinations. An initial inoculum of a mixed bacteria consortium (Pseudomonas aeruginosa ATCC 10145, Pseudomonas aeruginosa ATCC 15422, Enterobacter aerogenes ATCC 13048, Escherichia coli ATCC 11229, Klebsiella pneumoniae ATCC 8308, Staphylococcus aureus ATCC 6538, Salmonella choleraesuis ATCC 10708) is added to each biocidal solution at a final concentration of 5×10^6 CFU/mL. After 2, 6 and 13 days, the biocidal solutions are re-challenged with the same bacteria consortium to a final concentration of 5×10^4 CFU/mL of additional bacteria. All treatments are incubated at ambient temperatures. The results are shown in Table 7 which reports the biocide concentrations required to achieve a ≧4 log10 kill reduction in microorganisms.

Experiment [2] relates to oil field isolated anaerobic SRB consortium. The experiment can be described thus: Anaerobic bacteria under sulfide-rich and multiple challenge conditions (Example 4). It counts as cell-based, anaerobic sulfate-reducing bacteria (SRB). To be noted: room temperature, daily challenge with SRB and 10 ppm sulfide ion. Here is the method: as §1
Various methods known to those skilled in the art can be used for evaluating biocidal efficacy. In the examples below, aliquots of the treated samples are removed at predetermined time points and the concentration required to achieve a certain level or complete bacterial kill is determined by culture-based methods including serial dilution. In some examples, the method is based or adapted (e.g., for high temperature testing or for the presence of sulfide) from the methodology described in international application PCT/US08/075,755, filed Sep. […]
Inside an anaerobic chamber, biocide solutions of DBNPA, CTAC, and DBNPA/CTAC combinations at various concentrations are prepared in a salt solution (3.1183 g of NaCl, 1.3082 mg of NaHCO3, 47.70 mg of KCl, 72.00 mg of CaCl2, 54.49 mg of MgSO4, 172.28 mg of Na2SO4, 43.92 mg of Na2CO3 in 1 L water). […] The viable bacteria left in the mixtures is determined at different incubation times up to 7 days, using a serial dilution method. Bacterial log reduction is then calculated. The biocidal efficacy is determined by selecting the lowest biocide concentration required to achieve at least a 99.9% bacterial reduction for all three of the following time points: 2 hour, 1 day, and 7 days. Synergy index is then calculated.

Experiment [3] relates to Psedomonas aeruginosa ATCC 10145 and Staphylococcus aureus ATCC 6538. The experiment can be described thus: MBC against aerobic bacteria, 37° C., 24 hour (Example 2). It counts as cell-based. Here is the method:
as §1, §2
A sterile NaCl solution (0.85%) is contaminated with Psedomonas aeruginosa ATCC 10145 and Staphylococcus aureus ATCC 6538 at a final bacterial concentration of ˜10^6 CFU/ml. Aliquots of this contaminated water are then treated with biocide solution (single or in combination) at various concentrations.

For experiment [4], the system named is oil field isolated anaerobic SRB consortium. Description: MBC against anaerobic SRB consortium, 40° C., 24 hour (Example 1). It counts as cell-based, anaerobic sulfate-reducing bacteria (SRB). Here is the method:
as §1, §2
Inside an anaerobic chamber, a deaerated sterile salt solution (3.1183 g of NaCl, 1.3082 mg of NaHCO3, 47.70 mg of KCl, 72.00 mg of CaCl2, 54.49 mg of MgSO4, 172.28 mg of Na2SO4, 43.92 mg of Na2CO3 in 1 L water) is contaminated with an oil field isolated anaerobic SRB consortium at final bacterial concentrations of 10^6-10^7 CFU/mL. Aliquots of this contaminated water are then treated with biocide solution (single or in combination) at various concentrations.

Experiment [5] has the same test system. Description: Anaerobic bacteria under high temperature, sulfide-rich and re-challenge conditions (Example 5). To be noted: 80° C., daily challenge with SRB and 10 ppm sulfide ion. It counts as cell-based, anaerobic sulfate-reducing bacteria (SRB). Here is the method: as §1, §2
Inside an anaerobic chamber, biocide solutions of DBNPA, CTAC, and DBNPA/CTAC combinations at various concentrations are prepared in a salt solution (3.1183 g of NaCl, 1.3082 mg of NaHCO3, 47.70 mg of KCl, 72.00 mg of CaCl2, 54.49 mg of MgSO4, 172.28 mg of Na2SO4, 43.92 mg of Na2CO3 in 1 L water). […] After heating at 80 C for 2 hours, biocidal efficacy is evaluated against the field SRB consortium at 40° C. for 2 h. The same samples, after heating for 1 day to 7 days at 80 C, are evaluated against the field SRB consortium at 40 C for 24 h. […]

Experiment [6] relates to mixed bacteria consortium (Pseudomonas aeruginosa ATCC 10145, Pseudomonas aeruginosa ATCC 15422, Enterobacter aerogenes ATCC 13048, Escherichia coli ATCC …). The experiment can be described thus: Ternary DBNPA, CTAC and bronopol combination, re-challenge test against mixed bacteria consortium (Example 6). It is filed as cell-based, mixed aerobic bacteria. The settings on record: for Dose required for >4 log10 bacterial reduction vs. control, CTAC: CTAC alone or CTAC part of DBNPA:bnpd:CTAC combination; for Dose required for >4 log10 bacterial reduction vs. control, bnpd: bnpd alone or bnpd part of DBNPA:bnpd:CTAC combination; for Dose required for >4 log10 bacterial reduction vs. control, DBNPA: DBNPA alone or DBNPA part of DBNPA:bnpd:CTAC combination. Here is the method:
as §1, §2
as §3, with “DBNPA, bronopol, and” for “DBNPA and”, “CTAC are” for “CTAC is”, “g, deionized” for “g, DI”, “Table 10” for “Table 7”

[7] abbreviates: Day 3 after initial inoculation.
The mark [8] stands for this setting: Day 20 after initial inoculation.
[9] abbreviates: CTAC alone or CTAC part of DBNPA/CTAC combination.
Setting [10] is: Day 27 after initial inoculation.
Where [11] appears, read: HHT alone or HHT part of DBNPA/HHT combination.
The mark [12] stands for this setting: tris nitro alone or tris nitro part of DBNPA/tris nitro combination.
The mark [13] stands for this setting: DBNPA alone or DBNPA part of DBNPA/CTAC combination.
Setting [14] is: DBNPA alone or DBNPA part of DBNPA/HHT combination.
[15] abbreviates: DBNPA alone or DBNPA part of DBNPA/tris nitro combination.

Regarding `ClC=CC[N+]12CN3CN(CN(C3)C1)C2` [CTAC, 1-(3-chloroallyl)-3,5,7-triaza-1-azoniaadamantane], the “Dose required for ≧4 log10 bacteria reduction (ppm), CTAC” value in experiment [1] (setting [7]) and in experiment [1] (setting [8]) was greater than 750 ppm in each case. Moreover, the “Lowest biocide concentration required for ≧99.9% bacterial reduction for 2 h, 1 day, and 7 days (ppm), CTAC” value in experiment [2] (setting [9]) is greater than 360.0 ppm; in experiment [5] (setting [9]), 180 ppm. For the same compound, the “Dosage required for complete bacterial reduction (ppm), CTAC” value in experiment [3] (setting [9]) was greater than 159 ppm; in experiment [4] (setting [9]) it was 87.5 ppm. Further, the “Dose required for >4 log10 bacterial reduction vs. control, CTAC” value in experiment [6] (setting [7]) and in experiment [6] (setting [10]) was greater than 750 each time.

As for `O=[N+]([O-])C(Br)(CO)CO` [bnpd, 2-bromo-2-nitropropane-1,3-diol], the figures for the “Dose required for >4 log10 bacterial reduction vs. control, bnpd” value in experiment [6] (setting [7]) and in experiment [6] (setting [10]) were 32 and greater than 200, respectively.

In the case of `OCCN1CN(CCO)CN(CCO)C1` [HHT, hexahydro-1,3,5-tris(2-hydroxyethyl)-s-triazine], the “Dosage required for complete bacterial reduction (ppm), HHT” value in experiment [3] (setting [11]) amounted to 94.2 ppm; in experiment [4] (setting [11]), 113.8 ppm.

Turning to `O=[N+]([O-])C(CO)(CO)CO` [tris nitro, tris(hydroxymethyl)nitromethane], the “Dosage required for complete bacterial reduction (ppm), tris nitro” value is given as 104.6 ppm in experiment [3] (setting [12]) and 29.6 ppm in experiment [4] (setting [12]).

Turning to `N#CC(Br)(Br)C(N)=O` [DBNPA, 2,2-dibromo-3-nitrilopropionamide], the “Dose required for ≧4 log10 bacteria reduction (ppm), DBNPA” value is reported as greater than 167 ppm in experiment [1] (setting [7]) and greater than 250 ppm in experiment [1] (setting [8]). The “Lowest biocide concentration required for ≧99.9% bacterial reduction for 2 h, 1 day, and 7 days (ppm), DBNPA” value in experiment [2] (setting [13]) was 60.0 ppm; in experiment [5] (setting [13]), greater than 120 ppm. Also, the “Dosage required for complete bacterial reduction (ppm), DBNPA” value in experiment [3] (setting [13]) is listed as 8.9 ppm; in experiment [3] (setting [14]), 8.9 ppm; in experiment [3] (setting [15]) it was 9.9 ppm; in experiment [4] (setting [13]), 9.1 ppm; in experiment [4] (setting [14]), 7.0 ppm; in experiment [4] (setting [15]), 8.9 ppm. Further, the “Dose required for >4 log10 bacterial reduction vs. control, DBNPA” value in experiment [6] (setting [7]) is less than 12; in experiment [6] (setting [10]), greater than 75.
